{"source": "patent US10253002B2", "about": "“Compounds and methods of treating infections” (Neoculi Pty Ltd., priority 2013, dated 2019)", "key": {"[1]": {"system": "cell wall synthesis in S. aureus ATCC 29213", "assay": "Macromolecular synthesis assay: cell wall synthesis ([14C]N-acetylglucosamine)", "assay_type": "cell-based, Staphylococcus aureus", "details": "positive control; 8 fold the MIC (2 μg/mL)", "description": "(§1) Cells were grown at 35° C. overnight on Trypticase Soy agar. A colony from the plate was used to inoculate 10 ml of Mueller Hinton broth II (MHBII), and the culture was grown to early exponential growth phase (OD600==0.2 to 0.3) while incubating in a shaker at 35° C. and 200 rpm.\nBacterial cells in early exponential growth phase were transferred to M9 minimal medium and added to 1.5 mL eppendorf tubes (100 μL/tube) containing various concentrations of test compound or control antibiotics (5 μL) at 20× the final concentration in 100% DMSO as described above. Following a 5 min incubation at 37° C., [^14C]N-acetylglucosamine (0.4 μCi/reaction) was added to each tube and incubated for 45 min in a 37° C. heating block. Reactions were stopped through the addition of 100 μL of 8% SDS to each tube. Reactions were then heated at 95° C. for 30 min in a heating block, cooled, briefly centrifuged, and spotted onto pre-wet HA filters ([…]). After washing three times with 5 mL of 0.1% SDS, the filters were rinsed two times with 5 ml of deionized water, allowed to dry, and then counted using a Beckman LS3801 liquid scintillation counter."}, "[2]": {"system": "S. aureus isolates (HA-MRSA, CA-MRSA, methicillin-susceptible staphylococci)", "assay": "Kirby-Bauer disc diffusion resistotyping, Example 4", "assay_type": "cell-based, Staphylococcus aureus", "details": "for Total isolates resistant (Kirby-Bauer disc diffusion): all isolates (n = 30)", "method_in_brief": "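CLSI Kirby-Bauer disc diffusion on Mueller-Hinton agar. Overnight SBA cultures (37 °C) were suspended in saline and adjusted to 0.5 McFarland before spreading. Antibiotic discs were read after 24 h at 37 °C.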"}, "[3]": {"system": "S. pneumoniae isolates", "assay": "Disk diffusion susceptibility (CLSI/EUCAST), Example 5", "assay_type": "cell-based, Streptococcus pneumoniae", "method_in_brief": "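Susceptibility to 12 antimicrobials was categorised (S/I/R) using CLSI breakpoints from zones of complete inhibition, read thrice to the nearest millimetre with the mode taken. Incubation was 16–24 h, 37 °C, 5% CO2.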"}, "[4]": {"system": "Staphylococcus pseudintermedius isolates (MSSP and MRSP)", "assay": "Disk diffusion and Epsilometer susceptibility testing, Example 6", "assay_type": "cell-based", "details": "13 MRSP isolates"}, "[5]": {"system": "DNA synthesis in S. aureus ATCC 29213", "assay": "Macromolecular synthesis assay: DNA synthesis ([3H] thymidine)", "assay_type": "cell-based, Staphylococcus aureus", "details": "control; 8 fold the MIC (0.5 μg/mL)", "description": "as §1\nWhen cells reached early exponential phase, 100 μL of culture was added to triplicate wells containing various concentrations of test compound or control antibiotics (5 μL) at 20× the final concentration in 100% DMSO. A 5% DMSO treated culture served as the “no drug” control for all experiments. Cells were added in MHBII at 105% to account for the volume of drug added to each reaction or in M9 minimal medium for protein synthesis reactions. Following 15 min incubation at room temperature, either [^3H] thymidine (DNA synthesis), [^3H] uridine (RNA synthesis) or [^3H] leucine (protein synthesis) was added at 0.5-1.0 μCi per reaction, depending on the experiment. Reactions were allowed to proceed at room temperature for 15-30 min and then stopped by adding 12 μL of cold 5% trichloroacetic acid (TCA) or 5% TCA/2% casamino acids (protein synthesis only). Reactions were incubated on ice for 30 min and the TCA precipitated material was collected on a 25 mm GF/A filter. After washing three times with 5 ml of cold 5% TCA, the filters were rinsed two times with 5 mL 100% ethanol, allowed to dry, and then counted using a Beckman LS3801 liquid scintillation counter."}, "[6]": {"system": "Staphylococcus aureus T3-129 / Staphylococcus spp. MK1", "assay": "Synergy studies, checkerboard method (FIC index)", "assay_type": "cell-based", "details": "Staphylococcus spp. Strain MK1"}}, "note": "Where “and” joins values, the source holds several entries; their conditions need not be identical. Identical values can stand only once."}
{"compound": "CN[C@H](CC(C)C)C(=O)N[C@H]1C(=O)N[C@@H](CC(N)=O)C(=O)N[C@H]2C(=O)N[C@H]3C(=O)N[C@H](C(=O)N[C@H](C(=O)O)c4cc(O)cc(O)c4-c4cc3ccc4O)[C@H](O)c3ccc(c(Cl)c3)Oc3cc2cc(c3O[C@@H]2O[C@H](CO)[C@@H](O)[C@H](O)[C@H]2O[C@H]2C[C@](C)(N)[C@H](O)[C@H](C)O2)Oc2ccc(cc2Cl)[C@H]1O", "note": "[Vancomycin]", "values": [{"measurement": "inhibition of cell wall synthesis", "setting": "[1]", "value": 96, "unit": "%"}, {"measurement": "isolates resistant (Kirby-Bauer disc diffusion)", "setting": "[2]; CA-MRSA (n = 10)", "value": 0.00, "unit": "%"}, {"measurement": "isolates resistant (Kirby-Bauer disc diffusion)", "setting": "[2]; HA-MRSA (n = 10)", "value": 0.00, "unit": "%"}, {"measurement": "isolates resistant (Kirby-Bauer disc diffusion)", "setting": "[2]; Methicillin-susceptible staphylococci (n = 10)", "value": 0.00, "unit": "%"}, {"measurement": "Total isolates resistant (Kirby-Bauer disc diffusion)", "setting": "[2]", "value": 0.00, "unit": "%"}, {"measurement": "Total isolates resistant (Kirby-Bauer disc diffusion)", "setting": "[2]; listed as vancomycin", "value": "None of the isolates tested were vancomycin resistant"}, {"measurement": "disk diffusion zone diameter", "setting": "[3]; A66.1", "value": 25, "unit": "mm"}, {"measurement": "disk diffusion zone diameter", "setting": "[3]; D39", "value": 22, "unit": "mm"}, {"measurement": "disk diffusion zone diameter", "setting": "[3]; EF3030", "value": 22, "unit": "mm"}, {"measurement": "disk diffusion zone diameter", "setting": "[3]; L82016", "value": 23, "unit": "mm"}, {"measurement": "disk diffusion zone diameter", "setting": "[3]; P9", "value": 21, "unit": "mm"}, {"measurement": "disk diffusion zone diameter", "setting": "[3]; P21", "value": 21, "unit": "mm"}, {"measurement": "disk diffusion zone diameter", "setting": "[3]; TIGR4", "value": 22, "unit": "mm"}, {"measurement": "disk diffusion zone diameter", "setting": "[3]; WCH16", "value": 23, "unit": "mm"}, {"measurement": "disk diffusion zone diameter", "setting": "[3]; WCH43", "value": 20, "unit": "mm"}, {"measurement": "disk diffusion zone diameter", "setting": "[3]; WCH46", "value": 21, "unit": "mm"}, {"measurement": "disk diffusion zone diameter", "setting": "[3]; WCH57", "value": 28, "unit": "mm"}, {"measurement": "disk diffusion zone diameter", "setting": "[3]; WCH77", "value": 24, "unit": "mm"}, {"measurement": "disk diffusion zone diameter", "setting": "[3]; WCH86", "value": 22, "unit": "mm"}, {"measurement": "disk diffusion zone diameter", "setting": "[3]; WCH89", "value": 25, "unit": "mm"}, {"measurement": "disk diffusion zone diameter", "setting": "[3]; WCH92", "value": 22, "unit": "mm"}, {"measurement": "disk diffusion zone diameter", "setting": "[3]; WCH137", "value": 24, "unit": "mm"}, {"measurement": "disk diffusion zone diameter", "setting": "[3]; WCH158", "value": 22, "unit": "mm"}, {"measurement": "disk diffusion zone diameter", "setting": "[3]; WCH184", "value": 23, "unit": "mm"}, {"measurement": "disk diffusion zone diameter", "setting": "[3]; WCH211", "value": 23, "unit": "mm"}, {"measurement": "disk diffusion zone diameter", "setting": "[3]; WU2", "value": 21, "unit": "mm"}, {"measurement": "MRSP isolates susceptible", "setting": "[4]", "value": 77, "unit": "%"}]}
{"compound": "O=C(O)c1cn(C2CC2)c2cc(N3CCNCC3)c(F)cc2c1=O", "note": "[Ciprofloxacin]", "values": [{"measurement": "inhibition of DNA synthesis", "setting": "[5]", "value": "approximately 51%"}, {"measurement": "FICI", "setting": "[6]; FIC index of antibiotic with NCL812", "value": "0.75 and 0.525 and 0.625 and 0.562"}, {"measurement": "Antibiotic MIC Alone", "setting": "[6]; antibiotic alone", "value": "0.125 mg/L and 0.25 mg/L"}, {"measurement": "Result (interaction with NCL812)", "setting": "[6]; antibiotic with NCL812", "value": "NE (No effect (NE) was defined as 0.5<FICI<4)"}]}
